According to patent USRE38257E1, “Piperdine derivatives and hypotensives containing the same” (Ajinomoto Co., Inc., priority 1988, dated 2003):

Test system: male spontaneously hypertensive rats
Assay: Decrease in systolic blood pressure in spontaneously hypertensive rats after intravenous bolus injection, indirect (tail-cuff) method
Type: in vivo, rat
Conditions: for Decrease in systolic blood pressure (mmHg) time after administration (hour) 0.5: 0.5 hour after administration; for Decrease in systolic blood pressure (mmHg) time after administration (hour) 4: 4 hours after administration
Description: As test animals, four male spontaneously hypertensive rats (weight 400 to 440 g) that were sufficiently adapted for feeding and in which hypertension was confirmed were used.
Physiological saline aqueous solution containing 2.5% Nicolle and 2.5% ethanol of sample was intravenously administered by bolus injection at a dose of 1 ml per 1 kg of body weight. Systolic blood pressure after administration was measured by the indirect (tail-cuff) method.

Cl.O=c1[nH]c2ccccc2c(=O)n1CCN1CCC(=C2c3ccccc3C=Cc3ccccc32)CC1 [Example 28]
Decrease in systolic blood pressure (mmHg) time after administration (hour) 0.5 (dose 10 mg/kg i.v. bolus): −52 mmHg | Decrease in systolic blood pressure (mmHg) time after administration (hour) 4 (dose 10 mg/kg i.v. bolus): 4 mmHg

COc1cc2c(cc1OC)CC(CN1CCC(=C3c4ccccc4C=Cc4ccccc43)CC1)C2.Cl [Example 287, 2-(4-(5H-Dibenzo[a,d]cyclohepten-5-ylidene)-1-piperidinyl)methyl-5′,6′-dimethoxyindan hydrochloride]
Decrease in systolic blood pressure (mmHg) time after administration (hour) 0.5 (dose 10 mg/kg i.v. bolus): −83 mmHg | Decrease in systolic blood pressure (mmHg) time after administration (hour) 4 (dose 10 mg/kg i.v. bolus): −16 mmHg

1-Acetoxy-4-(4-(5H-dibenzo[a,d]cyclohepten-5-ylidene)-1-piperidinyl)-(3,4-dimethoxy)phenylButane hydroxybutane hydrochloride [Example 206]
Decrease in systolic blood pressure (mmHg) time after administration (hour) 0.5 (dose 10 mg/kg i.v. bolus): −61 mmHg | Decrease in systolic blood pressure (mmHg) time after administration (hour) 4 (dose 10 mg/kg i.v. bolus): −27 mmHg

Cl.O=[N+]([O-])c1ccc(CCCN2CCC(=C3c4ccccc4C=Cc4ccccc43)CC2)cc1 [Example 247, 3-(4-(5H-Dibenzo[a,d]cyclohepten-5-ylidene)-1-piperidinyl)-1-(4-notrophenyl)propane hydrochloride]
Decrease in systolic blood pressure (mmHg) time after administration (hour) 0.5 (dose 10 mg/kg i.v. bolus): −119 mmHg | Decrease in systolic blood pressure (mmHg) time after administration (hour) 4 (dose 10 mg/kg i.v. bolus): −40 mmHg

COC(=O)C1(CCCCN2CCC(=C3c4ccccc4C=Cc4ccccc43)CC2)CCCCC1.Cl [Example 219, 1-(4-(4-(5H-Dibenzo[a,d]cyclohepten-5-ylidene)-1-piperidinyl)-butyl)-1-methoxycarbonylcyclohexane hydrochloride]
Decrease in systolic blood pressure (mmHg) time after administration (hour) 0.5 (dose 10 mg/kg i.v. bolus): −104 mmHg | Decrease in systolic blood pressure (mmHg) time after administration (hour) 4 (dose 10 mg/kg i.v. bolus): −33 mmHg

COc1ccc(C(=O)C(CCN2CCC(=C3c4ccccc4C=Cc4ccccc43)CC2)C(C)C)cc1OC.Cl (centres unmarked) [Example 275, 4-(4-(5H-Dibenzo[a,d]cyclohepten-5-ylidene)-1-piperidinyl)-2-(2-propyl)-3′,4′-dimethoxybutyrophenone hydrochloride]
Decrease in systolic blood pressure (mmHg) time after administration (hour) 0.5 (dose 10 mg/kg i.v. bolus): −66 mmHg | Decrease in systolic blood pressure (mmHg) time after administration (hour) 4 (dose 10 mg/kg i.v. bolus): −20 mmHg

Cl.Cl.Nc1ccc(CCCCN2CCC(=C3c4ccccc4C=Cc4ccccc43)CC2)cc1 [Example 195, 1-(4-(4-Aminophenyl)butyl)-4-(5H-dibenzo[a,d]cyclohepten-5-ylidine)piperidine dihydrochloride]
Decrease in systolic blood pressure (mmHg) time after administration (hour) 0.5 (dose 10 mg/kg i.v. bolus): −100 mmHg | Decrease in systolic blood pressure (mmHg) time after administration (hour) 4 (dose 10 mg/kg i.v. bolus): −51 mmHg

Cl.Fc1cccc(CN2CCC(=C3c4ccccc4C=Cc4ccccc43)CC2)c1 [Example 112, 4-(5H-Dibenzo[a,d]cyclohepten-5-ylidene)-1-(3-fluorobenzyl)piperidine hydrochloride]
Decrease in systolic blood pressure (mmHg) time after administration (hour) 0.5 (dose 10 mg/kg i.v. bolus): −16 mmHg | Decrease in systolic blood pressure (mmHg) time after administration (hour) 4 (dose 10 mg/kg i.v. bolus): 0 mmHg

COc1cc(C=CCN2CCC(=C3c4ccccc4C=Cc4ccccc43)CC2)cc(OC)c1.Cl [Example 345, 4-(5H-Dibenzo[a,d]cyclohepten-5-ylidene)-1-(3,5-dimethoxycinnamyl)piperidine hydrochloride]
Decrease in systolic blood pressure (mmHg) time after administration (hour) 0.5 (dose 3 mg/kg i.v. bolus): −120 mmHg | Decrease in systolic blood pressure (mmHg) time after administration (hour) 4 (dose 3 mg/kg i.v. bolus): −95 mmHg

Cl.N#CC1CCC(CCCCN2CCC(=C3c4ccccc4C=Cc4ccccc43)CC2)CC1 (centres unmarked) [Example 297, 1-(1-(4-Cyano)cyclohexyl)-4-(4-(5H-Dibenzo[a,d]cyclohepten-5-ylidene)-1-piperidinyl)butane hydrochloride]
Decrease in systolic blood pressure (mmHg) time after administration (hour) 0.5 (dose 10 mg/kg i.v. bolus): −129 mmHg | Decrease in systolic blood pressure (mmHg) time after administration (hour) 4 (dose 10 mg/kg i.v. bolus): −57 mmHg

COc1ccc(C2(CCCN3CCC(=C4c5ccccc5C=Cc5ccccc54)CC3)OCCO2)cc1OC.Cl [Example 222]
Decrease in systolic blood pressure (mmHg) time after administration (hour) 0.5 (dose 10 mg/kg i.v. bolus): −94 mmHg | Decrease in systolic blood pressure (mmHg) time after administration (hour) 4 (dose 10 mg/kg i.v. bolus): −5 mmHg

Cc1ccc(C(=O)CCCN2CCC(=C3c4ccccc4C=Cc4ccccc43)CC2)cc1C.Cl [Example 198]
Decrease in systolic blood pressure (mmHg) time after administration (hour) 0.5 (dose 10 mg/kg i.v. bolus): −124 mmHg | Decrease in systolic blood pressure (mmHg) time after administration (hour) 4 (dose 10 mg/kg i.v. bolus): −25 mmHg

C1=Cc2ccccc2C(=C2CCN(CCCCc3ccc[nH]3)CC2)c2ccccc21.Cl [Example 293, 4-(4-(5H-Dibenzo[a,d]cyclohepten-5-ylidene)-1-piperidinyl)-1-(2-pyrolle)-1-butane hydrochloride]
Decrease in systolic blood pressure (mmHg) time after administration (hour) 0.5 (dose 10 mg/kg i.v. bolus): −122 mmHg | Decrease in systolic blood pressure (mmHg) time after administration (hour) 4 (dose 10 mg/kg i.v. bolus): 4 mmHg

C1=Cc2ccccc2C(=C2CCN(CC3CCc4ccccc4C3)CC2)c2ccccc21 (centres unmarked) [Example 225, 4-(5H-Dibenzo[a,d]cyclohepten-5-ylidene)-1-(1,2,3,4-tetrahydro-2-naphthylmethyl)piperidine]
Decrease in systolic blood pressure (mmHg) time after administration (hour) 0.5 (dose 10 mg/kg i.v. bolus): −115 mmHg | Decrease in systolic blood pressure (mmHg) time after administration (hour) 4 (dose 10 mg/kg i.v. bolus): −31 mmHg

CCCCC(C#N)(CCCN1CCC(=C2c3ccccc3C=Cc3ccccc32)CC1)c1cccc(C(F)(F)F)c1.Cl (centres unmarked) [Example 150, 2-Butyl-5-(4-(5H-Dibenzo[a,d]cyclohepten-5-ylidene)-1-piperidinyl)-2-(3-trifluoromethylphenyl)valeronitrile hydrochloride]
Decrease in systolic blood pressure (mmHg) time after administration (hour) 0.5 (dose 10 mg/kg i.v. bolus): −110 mmHg | Decrease in systolic blood pressure (mmHg) time after administration (hour) 4 (dose 10 mg/kg i.v. bolus): −47 mmHg

O=C(O)C(CCN1CCC(=C2c3ccccc3C=Cc3ccccc32)CC1)C1CCCCC1 (centres unmarked) [Example 238, 2-Cyclohexyl-4-(4-(5H-dibenzo[a,d]cyclohepten-5-ylidene)-1-piperidinyl)butyric acid]
Decrease in systolic blood pressure (mmHg) time after administration (hour) 0.5 (dose 10 mg/kg i.v. bolus): −14 mmHg | Decrease in systolic blood pressure (mmHg) time after administration (hour) 4 (dose 10 mg/kg i.v. bolus): −5 mmHg

Cc1ccccc1CN1CCC(=C2c3ccccc3C=Cc3ccccc32)CC1.Cl [Example 131, 4-(5H-Dibenzo[a,d]cyclohepten-5-ylidene)-1-(2-methylbenyl)piperidine hydrochloride]
Decrease in systolic blood pressure (mmHg) time after administration (hour) 0.5 (dose 10 mg/kg i.v. bolus): −116 mmHg | Decrease in systolic blood pressure (mmHg) time after administration (hour) 4 (dose 10 mg/kg i.v. bolus): 2 mmHg

Cl.FC(F)(F)c1cccc(CN2CCC(=C3c4ccccc4C=Cc4ccccc43)CC2)c1 [Example 115, 4-(5H-Dibenzo[a,d]cyclohepten-5-ylidene)-1-(3-trifluoromethylbenzyl)piperidine hydrochloride]
Decrease in systolic blood pressure (mmHg) time after administration (hour) 0.5 (dose 10 mg/kg i.v. bolus): −53 mmHg | Decrease in systolic blood pressure (mmHg) time after administration (hour) 4 (dose 10 mg/kg i.v. bolus): −19 mmHg

COc1ccc(C(O)CCCN2CCC(=C3c4ccccc4C=Cc4ccccc43)CC2)cc1OC.Cl (centres unmarked) [Example 205, 4-(4-(5H-Dibenzo[a,d]cyclohepten-5-ylidene)-1-piperidinyl)-1-(3,4-dimethoxy)phenyl-1-hydroxybutane hydrochloride]
Decrease in systolic blood pressure (mmHg) time after administration (hour) 0.5 (dose 10 mg/kg i.v. bolus): −22 mmHg | Decrease in systolic blood pressure (mmHg) time after administration (hour) 4 (dose 10 mg/kg i.v. bolus): −4 mmHg

C1=Cc2ccccc2C(=C2CCN(CCCCC3CCCCC3)CC2)c2ccccc21.Cl [Example 228]
Decrease in systolic blood pressure (mmHg) time after administration (hour) 0.5 (dose 3 mg/kg i.v. bolus): −112 mmHg | Decrease in systolic blood pressure (mmHg) time after administration (hour) 4 (dose 3 mg/kg i.v. bolus): −14 mmHg

O=C(c1cccc2ccccc12)N1CCC(=C2c3ccccc3C=Cc3ccccc32)CC1 [Example 213, 4-(5H-Dibenzo[a,d]cyclohepten-5-ylidene)-1-(1-naphthoyl)piperidine]
Decrease in systolic blood pressure (mmHg) time after administration (hour) 0.5 (dose 10 mg/kg i.v. bolus): −82 mmHg | Decrease in systolic blood pressure (mmHg) time after administration (hour) 4 (dose 10 mg/kg i.v. bolus): 3 mmHg

Cl.O=C1CCCCN1CCCCN1CCC(=C2c3ccccc3C=Cc3ccccc32)CC1 [Example 268, N-(4-(4-(5H-Dibenzo[a,d]cyclohepten-5-ylidene)-1-piperidinyl)-1-butyl)-2-piperidone hydrochloride]
Decrease in systolic blood pressure (mmHg) time after administration (hour) 0.5 (dose 10 mg/kg i.v. bolus): −29 mmHg | Decrease in systolic blood pressure (mmHg) time after administration (hour) 4 (dose 10 mg/kg i.v. bolus): 13 mmHg

2,6-Dimethyl-4-(4-(4-(5H-dibenzo[a,d]cyclohepten-5-ylidene)-1-piperidinyl)butyl)-5-methyl-1,4-dihydropyrydine-3,5-dicarboxylate hydrochloride [Example 285]
Decrease in systolic blood pressure (mmHg) time after administration (hour) 0.5 (dose 10 mg/kg i.v. bolus): −62 mmHg | Decrease in systolic blood pressure (mmHg) time after administration (hour) 4 (dose 10 mg/kg i.v. bolus): −7 mmHg

Cl.O=C(NCCN1CCCCC1=C1c2ccccc2C=Cc2ccccc21)c1ccccc1[N+](=O)[O-] [Example 291, N-(2-(5H-Dibenzo[a,d]cyclohepten-5-ylidene)-1-piperidinyl)ethyl-2-nitrobenzamide hydrochloride]
Decrease in systolic blood pressure (mmHg) time after administration (hour) 0.5 (dose 3 mg/kg i.v. bolus): −8 mmHg | Decrease in systolic blood pressure (mmHg) time after administration (hour) 4 (dose 3 mg/kg i.v. bolus): 15 mmHg

O=C(CCCC1CCCCC1)N1CCC(=C2c3ccccc3C=Cc3ccccc32)CC1 [Example 157, 1-(4-Cyclohexylbutanoyl)-4-(5H-dibenzo[a,d]cyclohepten-5-ylidene)piperidine]
Decrease in systolic blood pressure (mmHg) time after administration (hour) 0.5 (dose 10 mg/kg i.v. bolus): −32 mmHg | Decrease in systolic blood pressure (mmHg) time after administration (hour) 4 (dose 10 mg/kg i.v. bolus): −13 mmHg

Cl.O=[N+]([O-])c1cccc(CN2CCC(=C3c4ccccc4C=Cc4ccccc43)CC2)c1 [Example 142, 4-(5H-Dibenzo[a,d]cyclohepten-5-ylidene)-1-(3-nitrobenzyl)piperidine hydrochloride]
Decrease in systolic blood pressure (mmHg) time after administration (hour) 0.5 (dose 10 mg/kg i.v. bolus): −43 mmHg | Decrease in systolic blood pressure (mmHg) time after administration (hour) 4 (dose 10 mg/kg i.v. bolus): 0 mmHg

COC(=O)c1ccccc1C=CCN1CCC(=C2c3ccccc3C=Cc3ccccc32)CC1.Cl [Example 374, 4-(5H-Dibenzo[a,d]cyclohepten-5-ylidene)-1-(2-methoxycarbonylcinnamyl)piperidine hydrochloride]
Decrease in systolic blood pressure (mmHg) time after administration (hour) 0.5 (dose 3 mg/kg i.v. bolus): −119 mmHg | Decrease in systolic blood pressure (mmHg) time after administration (hour) 4 (dose 3 mg/kg i.v. bolus): 11 mmHg

Cl.Cl.Nc1ccccc1CCCN1CCC(=C2c3ccccc3C=Cc3ccccc32)CC1 [Example 251, 1-(2-Aminophenyl)-3-(4-(5H-Dibenzo[a,d]cyclohepten-5-ylidene)-1-piperidinyl)propane dihydrochloride]
Decrease in systolic blood pressure (mmHg) time after administration (hour) 0.5 (dose 10 mg/kg i.v. bolus): −110 mmHg | Decrease in systolic blood pressure (mmHg) time after administration (hour) 4 (dose 10 mg/kg i.v. bolus): −24 mmHg
